Data: patent US8802861B2, “Thiazole derivatives and use thereof” (Merck Serono SA, priority 2004, dated 2014)
pIC50: −log10 of the molar value. Read-outs that look alike come from different tables or passages of the source.

Legend:
[1] = system: Akt/PKB phosphorylation in Raw 264-7 macrophages; test: Cell based ELISA to monitor PI3K inhibition (Akt/PKB phosphorylation after Complement 5a stimulation); conditions: Mus musculus; for pIC50: RAW264.7, Raw 264-7 macrophages, 50 nM Complement 5a, read-out: Cell Assay (P-Akt, Elisa) IC50
Protocol: b) Cell Based ELISA to Monitor PI3K Inhibition:
The efficacy of compounds of the invention in inhibiting the PI3K induced AKt/PKB phosphorylation may be tested in the following cell based assay.
Measurement of Akt/PKB phosphorylation in macrophages after stimulation with Complement 5a: Raw 264: Raw 264-7 macrophages (cultured in DMEM-F12 medium containing 10% Fetal Calf serum and antibiotics) are plated at 20'000 cells/well in a 96 MTP 24 h before cell stimulation. Previous to the stimulation with 50 nM of Complement 5a during 5 minutes, Cells are serum starved for 2 h, and pretreated with inhibitors for 20 minutes. After stimulation cells are fixed in 4% formaldehyde for 20 minutes and washed 3 times in PBS containing 1% Triton X-100 (PBS/Triton). Endogenous peroxidase is blocked by a 20 minutes incubation in 0.6% H2O2 and 0.1% Sodium Azide in PBS/Triton and washed 3 times in PBS/Triton. Cells are then blocked by 60 minutes incubation with 10% fetal calf serum in PBS/Triton. Next, phosphorylated AKt/PKB is detected by an overnight incubation at 4° C. with first antibody (anti phospho Serine 473 Akt IHC, Cell Signaling) diluted 800-fold in PBS/Triton, containing 5% bovine serum albumin (BSA). After 3 washes in PBS/Triton, cells are incubated for 60 minutes with a peroxidase conjugated goat-anti-rabbit antibody (1/400 dilution in PBS/Triton, containing 5% BSA), washed 3 times in PBS/Triton, and 2 times in PBS and further incubated in 100 μl of substrate reagent solution (R&D) for 20 minutes. The reaction is stopped by addition of 50 μl of 1 M SO4H2 and absorbance is read at 450 nm.
The values indicated in Table II below reflect the percentage of inhibition of AKT phoshorylation as compared to basal level. Said values show a clear effect of the thiazole compounds on the activation of AKT phosphorylation in macrophages.

[2] = target: PI3Kγ (Homo sapiens (Human), UniProt P48736); test: High Throughput PI3K Lipid Kinase Assay (scintillation proximity assay); type: biochemical; conditions: Human recombinant GST-PI3Kγ, SPA
From the text: a) High Throughput PI3K Lipid Kinase Assay (Binding Assay): The efficacy of compounds of the invention in inhibiting the PI3K induced-lipid phosphorylation may be tested in the following binding assay. The assay combines the scintillation proximity assay technology (SPA, Amersham) with the capacity of neomycin (a polycationic antibiotic) to bind phospholipids with high affinity and specificity. The Scintillation Proximity Assay is based on the properties of weakly emitting isotopes (such as ^3H, ^125I, ^33P). Coating SPA beads with neomycin allows the detection of phosphorylated lipid substrates after incubation with recombinant PI3K and radioactive ATP in the same well, by capturing the radioactive phospholipids to the SPA beads through their specific binding to neomycin. […] After incubation at room temperature for 180 minutes, with gentle agitation, the reaction is stopped by addition of 60 μl of a solution containing 100 μg of neomycin-coated PVT SPA beads in PBS containing ATP 10 mM and EDTA 5 mM. The assay is further incubated at room temperature for 60 minutes with gentle agitation to allow binding of phospholipids to neomycin-SPA beads. After precipitation of the neomycin-coated PVT SPA beads for 5 minutes at 1500×g, radioactive PtdIns(3)P is quantified by scintillation counting in a Wallac MicroBetaTM plate counter. The values indicated in Table I below refer to the IC50 (nM) with respect to PI3Kγ, i.e. the amount necessary to achieve 50% inhibition of said target. Said values show a considerable inhibitory potency of thiazole compounds with regard to PI3Kγ.

[3] = system: Class I PI3-kinases; conditions: Fruman et al., 1998; read-out: IC50 against each of the various Class I PI3-kinases; cited from earlier work

Sequence of PI3Kγ (P48736 whole entry): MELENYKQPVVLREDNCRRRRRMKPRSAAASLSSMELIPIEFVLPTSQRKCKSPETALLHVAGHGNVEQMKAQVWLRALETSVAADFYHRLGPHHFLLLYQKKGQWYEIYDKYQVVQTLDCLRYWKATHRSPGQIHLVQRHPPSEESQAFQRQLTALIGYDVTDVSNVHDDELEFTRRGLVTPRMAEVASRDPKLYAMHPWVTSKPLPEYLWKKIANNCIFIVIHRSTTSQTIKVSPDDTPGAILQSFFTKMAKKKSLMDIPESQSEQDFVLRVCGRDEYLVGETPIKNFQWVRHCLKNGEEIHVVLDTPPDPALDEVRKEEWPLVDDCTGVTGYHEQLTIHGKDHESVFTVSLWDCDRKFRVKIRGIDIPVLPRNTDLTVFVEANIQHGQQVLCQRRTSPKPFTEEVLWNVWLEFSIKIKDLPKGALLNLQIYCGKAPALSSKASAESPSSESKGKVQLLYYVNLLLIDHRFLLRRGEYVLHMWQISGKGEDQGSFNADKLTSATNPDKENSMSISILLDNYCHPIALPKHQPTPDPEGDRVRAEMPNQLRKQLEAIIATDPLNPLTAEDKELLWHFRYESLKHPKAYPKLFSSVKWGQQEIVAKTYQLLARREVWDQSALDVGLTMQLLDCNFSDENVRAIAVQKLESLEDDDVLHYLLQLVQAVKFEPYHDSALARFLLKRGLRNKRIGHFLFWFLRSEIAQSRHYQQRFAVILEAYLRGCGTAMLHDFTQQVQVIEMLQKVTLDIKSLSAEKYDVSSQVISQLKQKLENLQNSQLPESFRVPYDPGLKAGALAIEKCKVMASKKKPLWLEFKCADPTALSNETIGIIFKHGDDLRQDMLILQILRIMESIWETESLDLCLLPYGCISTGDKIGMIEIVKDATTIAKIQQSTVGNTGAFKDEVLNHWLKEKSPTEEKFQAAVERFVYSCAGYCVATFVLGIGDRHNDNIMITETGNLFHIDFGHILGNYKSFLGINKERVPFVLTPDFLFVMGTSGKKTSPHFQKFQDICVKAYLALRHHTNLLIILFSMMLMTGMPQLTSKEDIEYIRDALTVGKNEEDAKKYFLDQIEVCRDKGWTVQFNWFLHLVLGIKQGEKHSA

Compound CC(=O)Nc1nc(C)c(-c2csc(Nc3cccc(C(=O)O)c3)n2)s1 [Example 1] has a pIC50 [1] of 5.50.
With CC(=O)Nc1nc(C)c(-c2csc(N3CCCCC3)n2)s1 [Example 5, N-(4-methyl-2-piperidin-1-yl-4,5-bi-1,3-thiazol-2-yl)acetamide] the pIC50 [2] was 6.20.
For C=CCNc1nc(-c2sc(NC(C)=O)nc2C)cs1 [Example 6, N-[2-(allylamino)-4-methyl-4,5-bi-1,3-thiazol-2-yl]acetamide], the pIC50 [2] was 6.69.
CC(=O)Nc1nc(C)c(-c2csc(Nc3cccnc3)n2)s1 [Example 7, N-[4-methyl-2-(Pyridin-3-ylamino)-4,5-bi-1,3-thiazol-2-yl]acetamid] showed a pIC50 [2] of 7.03 and a pIC50 [1] of 5.79.
CC(=O)Nc1nc(C)c(-c2csc(N)n2)s1 [Example 14, N-(2-amino-4-methyl-4,5-bi-1,3-thiazol-2-yl)acetamide] showed a pIC50 [2] of 6.24.
Work on CC(=O)Nc1nc(C)c(-c2csc(N3CCOCC3)n2)s1 [Example 16, N-(4-methyl-2-morpholin-4-yl-4,5-bi-1,3-thiazol-2-yl)acetamide] yielded a pIC50 [2] of 6.07.
For CC(=O)Nc1nc(C)c(-c2csc(NC(C)(C)C)n2)s1 [Example 22, N-[2-(tert-butylamino)-4-methyl-4,5-bi-1,3-thiazol-2-yl]acetamide], the pIC50 [2] was 6.50.
Work on CC(=O)Nc1nc(C)c(-c2csc(Nc3ccc(Cl)nc3)n2)s1 [Example 24, N-{2-[(6-chloropyridin-3-yl)amino]-4-methyl-4,5-bi-1,3-thiazol-2-yl}acetamide] yielded a pIC50 [1] of 6.18.
Work on CC(=O)Nc1nc(C)c(-c2csc(NCCN3CCOCC3)n2)s1 [Example 31, N-{4-methyl-2-[(2-morpholin-4-ylethyl)amino]-4,5-bi-1,3-thiazol-2-yl}acetamide] yielded a pIC50 [2] of 6.06.
Compound COCCNc1nc(-c2sc(NC(C)=O)nc2C)cs1 [Example 33, N-{2-[(2-methoxyethyl)amino]-4-methyl-4,5-bi-1,3-thiazol-2-yl}acetamide] has a pIC50 [2] of 6.45.
With CC(=O)Nc1nc(C)c(-c2csc(NCC(O)c3ccccc3)n2)s1 (centres unmarked) [Example 37, N-{2-[(2-hydroxy-2-phenylethyl)amino]-4-methyl-4,5-bi-1,3-thiazol-2-yl}acetamide] the pIC50 [2] was 7.15.
Work on CC(=O)Nc1nc(C)c(-c2csc(Nc3cccnc3F)n2)s1 [Example 43, N-{2-[(2-fluoropyridin-3-yl)amino]-4′-methyl-4,5′-bi-1,3-thiazol-2′-yl}acetamide] yielded a pIC50 [2] of 7.42.
In the case of CCOC(CCNc1nc(-c2sc(NC(C)=O)nc2C)cs1)OCC [Example 45, N-{2-[(3,3-diethoxypropyl)amino]-4′-methyl-4,5′-bi-1,3-thiazol-2′-yl}acetamide], the pIC50 [2] was 6.21.
CC(=O)Nc1nc(C)c(-c2csc(Nc3cccc(-c4nnc(O)o4)c3)n2)s1 [Example 53, N-(2-{[3-(5-hydroxy-1,3,4-oxadiazol-2-yl)phenyl]amino}-4′-methyl-4,5′-bi-1,3-thiazol-2′-yl)acetamide] gave an IC50 ([1]; RAW264.7, read-out: Cell Assay (P-Akt, Elisa) IC50 [μM]) of 1.51 µM.
CC(=O)Nc1nc(C)c(-c2csc(NCCc3nnc(O)o3)n2)s1 [Example 56, 5-(2-{[2′-(acetylamino)-4′-methyl-4,5′-bi-1,3-thiazol-2-yl]amino}ethyl)-1,3,4-oxadiazol-2-olate] gave a pIC50 [2] of 6.42.
CC(=O)NCCNc1nc(-c2sc(NC(C)=O)nc2C)cs1 [Example 77, N-(2-{[2-(acetylamino)ethyl]amino}-4′-methyl-4,5′-bi-1,3-thiazol-2′-yl)acetamide] showed a pIC50 [2] of 6.72.
For CC(=O)Nc1nc(C)c(-c2csc(NCCC(N)=O)n2)s1 [Example 84], the pIC50 [1] was 5.74.
For CC(=O)Nc1nc(C)c(-c2csc(Nc3cccc(CCC(=O)O)c3)n2)s1 [Example 136, 3-(3-{[2′-(acetylamino)-4′-methyl-4,5′-bi-1,3-thiazol-2-yl]amino}phenyl) propanoic acid], the pIC50 [2] was 7.19.
In the case of COC[C@H]1OC(=O)c2coc3c2[C@@]1(C)C1=C(C3=O)[C@@H]2CCC(=O)[C@@]2(C)C[C@H]1OC(C)=O [wortmannin], the pIC50 [3] is given as 8.00 to 9.00.
